Legend:
human FAAH = biological target: T1, human FAAH (Homo sapiens, UniProt O00519); test: FAAH assay, human FAAH enzyme inhibition (kinact/Ki); type: biochemical; conditions: oleamide substrate 50 μM, 30° C.; for kinact/KI: read-out: hFAAH kinact/Ki
T1 construct: made in house; host or cells: E. coli
T1 sequence (O00519 1-579): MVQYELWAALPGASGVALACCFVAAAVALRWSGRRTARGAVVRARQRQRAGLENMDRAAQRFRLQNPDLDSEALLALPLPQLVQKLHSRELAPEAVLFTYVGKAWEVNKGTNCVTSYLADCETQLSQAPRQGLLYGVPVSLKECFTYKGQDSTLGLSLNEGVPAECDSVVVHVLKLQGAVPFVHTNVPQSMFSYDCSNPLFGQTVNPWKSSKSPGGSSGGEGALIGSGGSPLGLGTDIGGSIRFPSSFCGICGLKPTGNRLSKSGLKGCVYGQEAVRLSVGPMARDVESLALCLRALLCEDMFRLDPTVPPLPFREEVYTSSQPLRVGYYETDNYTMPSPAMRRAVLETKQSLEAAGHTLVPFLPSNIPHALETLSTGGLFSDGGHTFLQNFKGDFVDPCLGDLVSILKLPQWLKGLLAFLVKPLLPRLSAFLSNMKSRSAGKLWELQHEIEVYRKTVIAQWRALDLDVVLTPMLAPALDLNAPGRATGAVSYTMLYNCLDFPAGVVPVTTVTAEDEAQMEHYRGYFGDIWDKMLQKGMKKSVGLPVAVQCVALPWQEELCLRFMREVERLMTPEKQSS
Method: (§1) The FAAH assay was carried out in 384-well clear polystyrene plates (Evergreen Scientific) in a total volume of 50 μl per well in a manner similar to that described by Mileni et al., Proc. Nat. Acad. Sci. 2008, 105, 12820-12824. All percents are by volume. Serial dilutions of compound were initially prepared in 100% DMSO, and then diluted two-fold into HPLC-grade H2O to give 50% DMSO. To each well, was placed the reaction mixture (40 μl) containing 1-4 nM FAAH, 50 mM NaPi, pH 7.4, 3 mM α-ketoglutarate, 0.15 mM NADH, 7.5 U/ml glutamate dehydrogenase, 2 mM ADP, 1 mM EDTA, and 0.1% Triton X-100 (The concentration shown for each component is the final concentration in the assay). To this mixture, was added 5 μl of a compound of Examples 1 to 56 at various concentrations in 50% DMSO (or 5 μl 50% DMSO for controls). This was immediately followed by the addition of 5 μl oleamide (500 μM) dissolved in 75% EtOH/25% DMSO and the reaction mixture was mixed for 1.5 min. The final concentrations of DMSO and EtOH in the assay were each 7.5%. The reactions were incubated at 30° C. and the absorbance at 340 nm was collected over a period of 90 min with readings taken in 30-second intervals using SpectraMax Plus^384 Microplate Spectrophotometer (Molecular Devices, Sunnyvale, Calif.). The human FAAH and rat FAAH used in the assay was prepared as described in the patent application WO 2006/067613 using wild-type E. coli cells transformed in St. Louis, Mo., U.S.A. The purity of the enzyme was greater than 98% based on an analysis by SDS-polyacrylamide gel electrophoresis followed by Coomassie Blue staining.
(§2) Reaction progress curves were corrected for the non-enzymatic oxidation of NADH by subtraction of absorbancies at each time point obtained from control reactions containing no FAAH enzyme. The loss of enzyme activity as a function of time is well-described by the following mathematical equation (1) for a mono-exponential decay: […]
(§3) where At represents the absorbance at time t, A0 represents the absorbance at time zero, and C represents a constant. Observed rates of enzyme inactivation (kobs) were determined from the non-linear reaction progress curves by fitting the corrected absorbancies to an equation for a mono-exponential decay using the third-party Microsoft Excel plug-in, XLfit (IDBS Limited). Secondary plots of kobs vs. inhibitor concentration were prepared from kobs values obtained from progress curves. Second-order rates for enzyme inactivation, expressed as kinact/Ki (M^−1s^−1), were calculated from the slopes from linear regression analysis of the secondary plot of kobs vs. inhibitor concentration as defined in following equation (2), where [I]<<Ki:
(§4) The concentration of substrate in the assay was equal to the Km for oleamide of 50 μM. Therefore, reported kinact/Ki values are obtained by multiplying resulting slopes by a factor of two (i.e. slope=kinact/(Ki*2)).

rat FAAH = biological target: T2, rat FAAH (Rattus norvegicus, UniProt P97612); test: FAAH assay, rat FAAH enzyme inhibition (kinact/Ki); type: biochemical; conditions: oleamide substrate 50 μM, 30° C.; for kinact/KI: read-out: rFAAH kinact/Ki
T2 construct: made in house; host or cells: E. coli
T2 sequence (P97612 1-579): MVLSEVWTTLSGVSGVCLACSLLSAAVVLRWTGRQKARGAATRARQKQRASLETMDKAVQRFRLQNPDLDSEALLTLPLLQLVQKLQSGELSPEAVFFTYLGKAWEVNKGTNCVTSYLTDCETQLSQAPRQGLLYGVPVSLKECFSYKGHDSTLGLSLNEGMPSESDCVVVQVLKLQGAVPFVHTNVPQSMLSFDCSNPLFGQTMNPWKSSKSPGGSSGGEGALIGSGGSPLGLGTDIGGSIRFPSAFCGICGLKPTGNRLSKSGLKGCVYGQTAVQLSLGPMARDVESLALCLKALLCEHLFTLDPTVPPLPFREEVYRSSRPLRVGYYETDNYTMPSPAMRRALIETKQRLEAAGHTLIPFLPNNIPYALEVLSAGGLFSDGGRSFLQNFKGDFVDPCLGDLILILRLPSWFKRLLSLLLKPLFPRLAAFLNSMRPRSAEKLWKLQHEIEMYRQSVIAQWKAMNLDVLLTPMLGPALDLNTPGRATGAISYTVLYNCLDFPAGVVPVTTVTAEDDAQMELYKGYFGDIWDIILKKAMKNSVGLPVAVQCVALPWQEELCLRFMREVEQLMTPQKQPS
Method: as §1, §2, §3, §4

SMILES | hFAAH kinact/Ki (human FAAH) [M⁻¹ s⁻¹] | rFAAH kinact/Ki (rat FAAH) [M⁻¹ s⁻¹] | kinact/KI (human FAAH) [M⁻¹ s⁻¹] | kinact/KI (rat FAAH) [M⁻¹ s⁻¹]
Cc1noc(NC(=O)N2CCC3(CC(c4ccc(F)c(Cl)c4)C3)C(C)C2)c1C (single isomer, unassigned) [Example 42a, 2-(3-chloro-4-fluorophenyl)-N-(3,4-dimethylisoxazol-5-yl)-5-methyl-7-azaspiro[3.5]nonane-7-carboxamide] | 1550 | 3040 |  | 
Cc1noc(NC(=O)N2CCC3(CC(c4ccc(F)c(Cl)c4)C3)C(C)C2)c1C (single isomer, unassigned) [Example 42b, 2-(3-chloro-4-fluorophenyl)-N-(3,4-dimethylisoxazol-5-yl)-5-methyl-7-azaspiro[3.5]nonane-7-carboxamide] | 37.1 | 49.4 |  | 
Cc1noc(NC(=O)N2CCC3(CC(c4ccc(F)c(Cl)c4)C3)C(C)C2)c1C (single isomer, unassigned) [Example 42c, 2-(3-chloro-4-fluorophenyl)-N-(3,4-dimethylisoxazol-5-yl)-5-methyl-7-azaspiro[3.5]nonane-7-carboxamide] | 2760 | 3530 |  | 
Cc1noc(NC(=O)N2CCC3(CC(c4ccc(F)c(Cl)c4)C3)C(C)C2)c1C (single isomer, unassigned) [Example 42d, 2-(3-chloro-4-fluorophenyl)-N-(3,4-dimethylisoxazol-5-yl)-5-methyl-7-azaspiro[3.5]nonane-7-carboxamide] | 1100 | 860 |  | 
Cc1noc(NC(=O)N2CCC3(CC2)CC(c2cccc(Oc4ccc(Br)cn4)c2)C3)c1C [Example 11, 2-{3-[(5-bromopyridin-2-yl)oxy]phenyl}-N-(3,4-dimethylisoxazol-5-yl)-7-azaspiro[3.5]nonane-7-carboxamide] |  |  | 2340 | 9990
Cc1cccc(C2CC3(CCN(C(=O)Nc4nnnn4C)CC3)C2)c1 [Example 16, 2-(3-methylphenyl)-N-(1-methyl-1H-tetrazol-5-yl)-7-azaspiro[3.5]nonane-7-carboxamide] |  |  | 9660 | 3200
Cc1cccc(C2CC3(CCN(C(=O)Nc4nnc(-c5ccccc5)nn4)CC3)C2)c1 [Example 17, 2-(3-methylphenyl)-N-(6-phenyl-1,2,4,5-tetrazin-3-yl)-7-azaspiro[3.5]nonane-7-carboxamide] |  |  | 2460 | 3940
Cc1noc(NC(=O)N2CCC3(CC2)CC(c2cccc(-c4cccc(F)c4)c2)C3)c1C [Example 31, N-(3,4-dimethylisoxazol-5-yl)-2-(3′-fluorobiphenyl-3-yl)-7-azaspiro[3.5]nonane-7-carboxamide] |  |  | 1100 | 656
Cc1nnc(NC(=O)N2CCC3(CC2)CC(c2cccc(OC(F)(F)F)c2)C3)o1 [Example 35, N-(5-methyl-1,3,4-oxadiazol-2-yl)-2-[3-(trifluoromethoxy)phenyl]-7-azaspiro[3.5]nonane-7-carboxamide] |  |  | 1530 | 2460
Cc1noc(NC(=O)N2CCC3(CC2)CC(c2csc(-c4cccc(F)c4)n2)C3)c1C [Example 37, N-(3,4-dimethylisoxazol-5-yl)-2-[2-(3-fluorophenyl)-1,3-thiazol-4-yl]-7-azaspiro[3.5]nonane-7-carboxamide] |  |  | 1900 | 1980
Cc1noc(NC(=O)N2CCC3(CC2)CC(c2nc(-c4ccc(OC(F)(F)F)cc4)cs2)C3)c1C [Example 38, N-(3,4-dimethylisoxazol-5-yl)-2-{4-[4-(trifluoromethoxy)phenyl]-1,3-thiazol-2-yl}-7-azaspiro[3.5]nonane-7-carboxamide] |  |  | 3720 | 756
Cc1noc(NC(=O)N2CCC3(CC2)CC(c2ccc(Cl)c(F)c2)C3)c1C [Example 39, 2-(4-chloro-3-fluorophenyl)-N-(3,4-dimethylisoxazol-5-yl)-7-azaspiro[3.5]nonane-7-carboxamide] |  |  | 2670 | 4120

— patent US20100113465A1, “7-AZASPIRO[3.5]NONANE-7-CARBOXAMIDE COMPOUNDS” (Pfizer Inc., priority 2008, published 2010)
